The target in assay [1] is T1, HPr kinase/phosphorylase (Bacillus subtilis (strain 168), UniProt O34483).
T1 sequence (O34483 whole entry): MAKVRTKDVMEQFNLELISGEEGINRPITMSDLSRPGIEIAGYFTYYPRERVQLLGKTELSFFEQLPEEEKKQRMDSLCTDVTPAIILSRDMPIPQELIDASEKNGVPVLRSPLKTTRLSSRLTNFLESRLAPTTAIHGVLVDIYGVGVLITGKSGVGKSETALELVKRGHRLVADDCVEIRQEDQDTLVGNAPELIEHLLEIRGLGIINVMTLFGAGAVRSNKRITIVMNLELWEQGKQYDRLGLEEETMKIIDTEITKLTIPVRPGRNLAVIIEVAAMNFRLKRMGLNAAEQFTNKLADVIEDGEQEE
Briefly: Inhibition of bifunctional enzyme HPr kinase/phosphatase from Bacillus subtilis at pH 7.0 and hill coefficient of 1.4.

Assay [2] addresses T1, HPr kinase/phosphorylase. Briefly: Inhibition of bifunctional enzyme HPr kinase/phosphatase from Bacillus subtilis at pH 8.0 and hill coefficient of 2.9.

Consider `N=c1n(CC(=O)N/N=C/c2ccc(/C=N/NC(=O)Cn3c(=N)n(Cc4ccccc4)c4ccccc43)cc2)c2ccccc2n1Cc1ccccc1`, for which the concentration for half-maximal inhibition (IC50) in assay [1] was 17 µM; in assay [2], 18 µM.

(Values after ChEMBL document CHEMBL1145947, “Generation of bis-cationic heterocyclic inhibitors of Bacillus subtilis HPr kinase/phosphatase from a ditopic dynamic combinatorial library” (J Med Chem, 2003).)
